Target: T1, Wee1 (Homo sapiens, UniProt P30291)
T1 construct: purchased Eurofins
Test: In vitro enzymatic inhibitory activity, Wee1 kinase (Eurofins, [γ-33P]-ATP filter assay)
Type: biochemical
Conditions: 10 μM [γ-33P]-ATP, 40 min at room temperature
Description: The experimental tests were conducted at Eurofins, and the results were provided by the company.
After adding the mixed solution of Mg^2+ and ATP, the reaction started and the reaction solution was incubated at room temperature for 40 min. 3% phosphate buffer was added to stop the reaction. 10 μL of the reaction solution was filtered on a continuous filter P30, washed three times with 75 mM phosphate buffer, once with methanol, and 5 minutes each time. After drying, the value was read by scintillation counting method.

T1 sequence (P30291 whole entry): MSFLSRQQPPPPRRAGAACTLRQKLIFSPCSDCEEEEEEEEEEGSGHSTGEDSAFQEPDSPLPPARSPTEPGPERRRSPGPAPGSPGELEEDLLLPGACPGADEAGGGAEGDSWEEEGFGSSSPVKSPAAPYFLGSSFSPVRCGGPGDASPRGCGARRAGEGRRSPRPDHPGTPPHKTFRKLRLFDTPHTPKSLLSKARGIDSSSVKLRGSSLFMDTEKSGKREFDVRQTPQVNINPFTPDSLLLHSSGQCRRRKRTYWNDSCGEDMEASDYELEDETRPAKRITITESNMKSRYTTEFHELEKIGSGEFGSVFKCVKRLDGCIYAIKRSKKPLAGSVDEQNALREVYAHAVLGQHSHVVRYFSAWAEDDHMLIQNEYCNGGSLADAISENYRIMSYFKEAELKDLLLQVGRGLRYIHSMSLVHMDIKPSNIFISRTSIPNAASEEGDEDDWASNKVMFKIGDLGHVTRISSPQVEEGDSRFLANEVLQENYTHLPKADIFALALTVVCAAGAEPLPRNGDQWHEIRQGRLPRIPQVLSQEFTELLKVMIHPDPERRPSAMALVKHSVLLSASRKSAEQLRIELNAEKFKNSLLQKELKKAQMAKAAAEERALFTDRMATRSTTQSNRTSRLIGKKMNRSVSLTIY

CC1(O)CC/C=C\Cn2c(=O)c3cnc(Nc4ccc(N5CCC(F)(F)CC5)cc4)nc3n2-c2cccc1n2 (centres unmarked) [Compound 3]
IC50: 42 nM

CC1(O)CC/C=C\Cn2c(=O)c3cnc(Nc4ccc(N5CCNCC5)cc4)nc3n2-c2cccc1n2 (centres unmarked) [Compound 6]
IC50: 46 nM

CN1CCC2(CC1)CCN(c1ccc(Nc3ncc4c(=O)n5n(c4n3)-c3cccc(n3)C(C)(O)CC/C=C\C5)cc1)CC2 (centres unmarked) [Compound 7]
IC50: 54 nM

CN(C)C1CCN(c2ccc(Nc3ncc4c(=O)n5n(c4n3)-c3cccc(n3)C(C)(O)CC/C=C\C5)cc2)CC1 (centres unmarked) [Compound 9]
IC50: 41 nM

CN1CCCN(c2ccc(Nc3ncc4c(=O)n5n(c4n3)-c3cccc(n3)C(C)(O)CC/C=C\C5)cc2)CC1 (centres unmarked) [Compound 10]
IC50: 49 nM

CC1(O)CC/C=C\Cn2c(=O)c3cnc(Nc4ccc(N5CCCNCC5)cc4)nc3n2-c2cccc1n2 (centres unmarked) [Compound 11]
IC50: 102 nM

C[C@@]1(O)CC/C=C\Cn2c(=O)c3cnc(Nc4ccccc4)nc3n2-c2cccc1n2 [Compound 12]
IC50: 59 nM

C[C@]1(O)CC/C=C\Cn2c(=O)c3cnc(Nc4ccccc4)nc3n2-c2cccc1n2 [Compound 13]
IC50: 265 nM

COc1cccc(Nc2ncc3c(=O)n4n(c3n2)-c2cccc(n2)[C@](C)(O)CC/C=C\C4)c1 [Compound 16]
IC50: 60 nM

COc1cccc(Nc2ncc3c(=O)n4n(c3n2)-c2cccc(n2)[C@@](C)(O)CC/C=C\C4)c1 [Compound 17]
IC50: 366 nM

CN(C)CCOc1ccc(Nc2ncc3c(=O)n4n(c3n2)-c2cccc(n2)[C@](C)(O)CC/C=C\C4)cc1 [Compound 18]
IC50: 29 nM

CN(C)CCOc1ccc(Nc2ncc3c(=O)n4n(c3n2)-c2cccc(n2)[C@@](C)(O)CC/C=C\C4)cc1 [Compound 19]
IC50: 72 nM

CN1CCC(c2ccc(Nc3ncc4c(=O)n5n(c4n3)-c3cccc(n3)[C@](C)(O)CC/C=C\C5)cc2)CC1 [Compound 20]
IC50: 173 nM

CN1CCC(c2ccc(Nc3ncc4c(=O)n5n(c4n3)-c3cccc(n3)[C@@](C)(O)CC/C=C\C5)cc2)CC1 [Compound 21]
IC50: 280 nM

CN1CCN(c2ccc(Nc3ncc4c(=O)n5n(c4n3)-c3cccc(n3)[C@](C)(O)CC/C=C\C5)cc2CO)CC1 [Compound 22]
IC50: 16 nM

COCc1cc(Nc2ncc3c(=O)n4n(c3n2)-c2cccc(n2)[C@](C)(O)CC/C=C\C4)ccc1N1CCN(C)CC1 [Compound 23]
IC50: 29 nM

CN1CC2CN(c3ccc(Nc4ncc5c(=O)n6n(c5n4)-c4cccc(n4)[C@](C)(O)CC/C=C\C6)cc3)CC2C1 (some centres unmarked) [Compound 24]
IC50: 57 nM

CN1CC2CN(c3ccc(Nc4ncc5c(=O)n6n(c5n4)-c4cccc(n4)[C@@](C)(O)CC/C=C\C6)cc3)CC2C1 (some centres unmarked) [Compound 25]
IC50: 78 nM

CN1CCc2ccc(Nc3ncc4c(=O)n5n(c4n3)-c3cccc(n3)[C@](C)(O)CC/C=C\C5)cc2C1 [Compound 26]
IC50: 30 nM

CN1CCc2ccc(Nc3ncc4c(=O)n5n(c4n3)-c3cccc(n3)[C@@](C)(O)CC/C=C\C5)cc2C1 [Compound 27]
IC50: 37 nM

C[C@@]1(O)CC/C=C\Cn2c(=O)c3cnc(Nc4cccc(F)c4)nc3n2-c2cccc1n2 [Compound 28]
IC50: 79 nM

C[C@]1(O)CC/C=C\Cn2c(=O)c3cnc(Nc4cccc(F)c4)nc3n2-c2cccc1n2 [Compound 29]
IC50: 444 nM

C[C@@]1(O)CC/C=C\Cn2c(=O)c3cnc(Nc4ccc(F)cc4)nc3n2-c2cccc1n2 [Compound 30]
IC50: 67 nM

C[C@]1(O)CC/C=C\Cn2c(=O)c3cnc(Nc4ccc(F)cc4)nc3n2-c2cccc1n2 [Compound 31]
IC50: 323 nM

C[C@@]1(O)CC/C=C\Cn2c(=O)c3cnc(Nc4ccc(N5CCOCC5)cc4)nc3n2-c2cccc1n2 [Compound 32]
IC50: 37 nM

C[C@]1(O)CC/C=C\Cn2c(=O)c3cnc(Nc4ccc(N5CCOCC5)cc4)nc3n2-c2cccc1n2 [Compound 33]
IC50: 151 nM

CN1CCN(c2cccc(Nc3ncc4c(=O)n5n(c4n3)-c3cccc(n3)[C@](C)(O)CC/C=C\C5)c2)CC1 [Compound 34]
IC50: 116 nM

CN1CCN(c2cccc(Nc3ncc4c(=O)n5n(c4n3)-c3cccc(n3)[C@@](C)(O)CC/C=C\C5)c2)CC1 [Compound 35]
IC50: 276 nM

CN(C)CCOc1cccc(Nc2ncc3c(=O)n4n(c3n2)-c2cccc(n2)[C@](C)(O)CC/C=C\C4)c1 [Compound 36]
IC50: 35 nM

CN1CCCN(c2ccc(Nc3ncc4c(=O)n5n(c4n3)-c3cccc(n3)[C@](C)(O)CC/C=C\C5)cc2)CC1 [Compound 37]
IC50: 31 nM

CN(C)C1CCN(c2ccc(Nc3ncc4c(=O)n5n(c4n3)-c3cccc(n3)[C@](C)(O)CC/C=C\C5)cc2)CC1 [Compound 38]
IC50: 48 nM

C[C@@]1(O)CC/C=C\Cn2c(=O)c3cnc(Nc4ccc(Cl)cc4)nc3n2-c2cccc1n2 [Compound 39]
IC50: 54 nM

C[C@@]1(O)CC/C=C\Cn2c(=O)c3cnc(Nc4ccc(OC5CC5)cc4)nc3n2-c2cccc1n2 [Compound 40]
IC50: 35 nM

C[C@@]1(O)CC/C=C\Cn2c(=O)c3cnc(Nc4ccc(N5CCC(F)(F)CC5)cc4)nc3n2-c2cccc1n2 [Compound 41]
IC50: 16 nM

CN(C)CCOc1cccc(Nc2ncc3c(=O)n4n(c3n2)-c2cccc(n2)[C@@](C)(O)CC/C=C\C4)c1 [Compound 42]
IC50: 221 nM
